Laboratory results taken from patent US20250276973A1, “CRYSTAL OF 7H-PYRROLO[2,3-D]PYRIMIDINE-4-AMINE DERIVATIVE” (TAIHO PHARMACEUTICAL CO., LTD., priority 2022, published 2025).
Where two headings read alike, the source gives them in different places.

How the values were obtained:
[1] = Plasma concentration determination test after oral administration; format: in vivo; conditions: male beagle dogs, gelatin capsule, 20 mg/kg in terms of free form, hypochlorhydria conditions, three dogs
Description: The Compound (1) in free form (type II crystal), the type III crystal of Compound (1) with one equivalent of succinic acid, and the type I crystal of Compound (1) with one equivalent of sorbic acid obtained in the examples were tested for plasma concentrations in male beagle dogs after oral administration under hypochlorhydria conditions.
In order to select three male beagle dogs for the test, plasma concentrations were determined in five male beagle dogs under hypochlorhydria conditions after administration in a solution form and administration in a capsule-filled form. Three dogs with larger differences in AUClast (area under the plasma concentration-time curve from 0 hours after administration to the point at which the final concentration can be calculated by the linear trapezoidal method before Tmax and by the log-trapezoidal method after Tmax) and Cmax (maximum plasma concentration) between the administration in the solution form and the administration in the capsule-filled form were selected. Subsequently, tests were conducted to determine plasma concentrations in them after oral administration of the Compound (1) in free form (type II crystal), the type III crystal of Compound (1) with one equivalent of succinic acid, and the type I crystal of Compound (1) with one equivalent of sorbic acid in capsule-filled forms. The following procedures were employed for the preparation of a liquid dosage, capsule filling, and animal experiments.
Compound (1) in free form was dissolved in a 20% HP-β-CD solution containing 0.1N hydrochloric acid to prepare a solution of 20 mg/5 mL. Compound (1) in free form (type II crystal), the type III crystal of Compound (1) with one equivalent of succinic acid, and the type I crystal of Compound (1) with one equivalent of sorbic acid were each filled into a gelatin capsule at 20 mg/kg in terms of the molecular weight of Compound (1) (free form).
The male beagle dogs selected for the study were fasted starting between 11:00 a.m. to 12:00 p.m. on the day before Compound (1) was administered and fed after blood was collected 8 hours after the administration of the compound. The dogs were not allowed to drink water from 30 minutes before to 2 hours after the administration of the compound, but were allowed to drink freely at other time.
Intravenous administration of atropine (atropine sulfate injection 0.5 mg “Fuso”) at a dose of 0.02 mg/kg was followed by intramuscular administration of pentagastrin at a dose of 0.01 mg/kg 30 minutes prior to the administration of the compound. Thirty minutes after the administration of atropine, the dogs were orally force-fed a capsule filled with the compound, encouraged to self-swallow the capsule with 5 mL of distilled water, and further orally force-fed 50 mL of distilled water using a catheter. Alternatively, the compound dissolved in liquid dosage was administered orally via a catheter at a dose of 20 mg/5 mL/kg, and the catheter was immediately rinsed with 10 mL of distilled water.
Pentagastrin was again intramuscularly administered at 0.01 mg/kg 15 minutes and 1 hour after the administration of the compound.
Before and after (0.25, 0.5, 1, 2, 4, 6, 8, and 24 hours after) the administration, the person in charge of collecting blood held the dog's forelimb to distend the blood vessel using a clothespin or the like. Then, the blood collection site was disinfected with alcohol cotton, and about 0.2 mL of blood was collected using a heparinized syringe and needle. After the blood was drawn, the puncture site was pressed with a cotton pad to adequately stop bleeding. The collected blood samples were ice-cooled, and plasma was isolated by centrifugation as soon as possible. The isolated plasma was immediately frozen on dry ice and then stored frozen in a freezer set at −80° C. […]

[2] = Solid stability test (4 weeks of storage at 80° C., closed system; HPLC); format: physicochemical; conditions: for Chemical purity after 4 weeks of storage at 80° C. / Solid stability (result in words): 80° C. (closed system), 4 weeks; for Chemical purity after 4 weeks of storage at 80° C.: glass bottle; for Chemical purity after 4 weeks of storage at 80° C. / Chemical purity before storage: HPLC; for Solid stability (result in words): related substances by HPLC; for Change (chemical purity): after 4 weeks at 80° C. versus before storage; for Chemical purity before storage: UV 220
Description: The solid stability of the type II crystal of Compound (1) in free form, the type III crystal of Compound (1) in free form, the type VII crystal of Compound (1) in free form, and the type VIII crystal of Compound (1) in free form obtained in the examples, reference example, and comparative example were evaluated after 4 weeks of storage by the following procedure. • Storage conditions: 80° C. (closed system) (HIFLEX (high-temperature storage chamber manufactured by ETAC)) • Storage period: 4 weeks • Storage volume: Approximately 30 mg • Storage container: Glass bottle
Changes in the mass of the related substances (the amounts of detected substances other than Compound (1)) were analyzed by HPLC according to the following method. Approximately 8 mg of each sample was weighed and dissolved in I mL of a chloroform-methanol mixture (1:1 v/v). Fifty μL of this solution was measured and diluted with 950 μL of an acetonitrile-water mixture (7:3), and 5 μL of the resulting solution was accurately measured and used as the sample for the analysis.
The mass of the related substances in the sample solution was determined by HPLC analysis. The instrument, including data processing, was handled in accordance with the method and procedure indicated for each instrument. • Column: InertSustainSwift C18 (2.1×50 mm, 1.9 μm) manufactured by GL Sciences • UV detection: […] • Column temperature: 40° C. • Flow rate: 0.3 mL/min • Sample cooler: 10° C. • Sample concentration: 0.1 mg/mL • Mobile phase A: 10 mmol/L phosphate buffer (pH 6.8)/acetonitrile (95:5) mixture • Mobile phase B: Acetonitrile • The gradients are shown in Table 4.
The solid stability of the type III crystal of Compound (1) with succinic acid, the type I crystal of Compound (1) with citric acid, the type IV crystal of Compound (1) with citric acid, the type I crystal of Compound (1) with sorbic acid, and the type I crystal of Compound (1) with phosphoric acid obtained in the examples, reference example, and comparative examples were evaluated after 4 weeks of storage. The evaluation method, storage, and measurement conditions were as described in Test Example 1.

[3] = Dynamic vapor sorption (DVS) test; format: physicochemical; conditions: 25° C.; for Hygroscopicity (result in words): 5 to 95% RH; for Weight increase under 95% relative humidity: 95% RH
Description: Vapor sorption tests were performed using the type II crystal of Compound (1) in free form, the type III crystal of Compound (1) in free form, the type VII crystal of Compound (1) in free form, and the type VIII crystal of Compound (1) in free form obtained in the examples, reference example, and comparative example.
Vapor sorption tests were conducted under the following conditions.
Approximately 10 mg of the sample was filled into a specialized quartz holder to continuously measure and record the weight of the sample at each humidity was under the following conditions. The instrument, including data processing, was handled in accordance with the method and procedure indicated for each instrument. • Instrument: VTI-SA+(manufactured by TA Instruments) • Drying temperature: 60° C. • Heating rate: 1° C./min • Equilibration of drying: Confirmation of no more than 0.01 wt % decrease in 5 minutes within a period not exceeding 300 minutes • Measurement temperature: 25° C. • Equilibration of humidification: Confirmation of no more than 0.01 wt % increase in 5 minutes within a period not exceeding 120 minutes • Relative humidity program: Increase from 5 to 95% RH in increments of 5% RH, and decrease from 95% to 5% RH in increments of 5% RH. • Changes in the weight over the range of the measurement conditions obtained in these tests are shown in FIGS. 9 through 12.
Vapor sorption tests were performed using the type III crystal of Compound (1) with succinic acid, the type I crystal of Compound (1) with citric acid, the type IV crystal of Compound (1) with citric acid, the type I crystal of Compound (1) with sorbic acid, and the type I crystal of Compound (1) with phosphoric acid obtained in the examples, reference example, and comparative examples.
Vapor sorption tests were conducted under the same conditions as in Test Example 2.

[4] = male, beagle, dog, plasma, po, 20 mg/kg

Row | Compound | AUC(0-t) [1, 4] [µM·h] | Cmax [1, 4] [nM] | tmax ([1]; male, beagle, dog, plasma, po, 20 mg/kg, read-out: tmax) [h] | Chemical purity after 4 weeks of storage at 80° C. [2] [%] | Solid stability (result in words) [2] | Change (chemical purity) [2] | Chemical purity before storage [2] [%] | Hygroscopicity (result in words) [3] | Weight increase under 95% relative humidity [3] [%] | AUClast [1] [µM·h] | Cmax [1] [nM] | tmax [1] [h]
1 | C#Cc1c(-c2cnc3ccccc3c2)c2c(N)ncnc2n1C12CCC(NC(=O)c3cnc(C)cn3)(CC1)C2 [N-(4-(4-amino-6-ethynyl-5-(quinolin-3-yl)-7H-pyrrolo[2,3-d]pyrimidin-7-yl)bicyclo[2.2.1]heptan-1-yl)-5-methylpyrazine-2-carboxamide] | 13 ± 4 | 1260 ± 90 | 4 |  |  |  |  |  |  |  |  | 
2 | C#Cc1c(-c2cnc3ccccc3c2)c2c(N)ncnc2n1C12CCC(NC(=O)c3cnc(C)cn3)(CC1)C2 [Type I crystal of Compound (1) with sorbic acid] [N-(4-(4-amino-6-ethynyl-5-(quinolin-3-yl)-7H-pyrrolo[2,3-d]pyrimidin-7-yl)bicyclo[2.2.1]heptan-1-yl)-5-methylpyrazine-2-carboxamide] |  |  |  | 99.72 | extremely stable crystals with almost no increase in the related substances | −0.02% | 99.74 | hardly hygroscopic | 0.26 | 18.1 ± 13.1 | 1680 ± 880 | 6.0 ± 2.0
3 | C#Cc1c(-c2cnc3ccccc3c2)c2c(N)ncnc2n1C12CCC(NC(=O)c3cnc(C)cn3)(CC1)C2 [Type III crystal of Compound (1) with succinic acid] [N-(4-(4-amino-6-ethynyl-5-(quinolin-3-yl)-7H-pyrrolo[2,3-d]pyrimidin-7-yl)bicyclo[2.2.1]heptan-1-yl)-5-methylpyrazine-2-carboxamide] |  |  |  | 99.63 | extremely stable crystals with almost no increase in the related substances | +0.01% | 99.62 | hardly hygroscopic | 0.28 | 25.1 ± 8.4 | 2240 ± 750 | 5.3 ± 1.2
